≈ marks a conversion by molar mass, not a printed value.

Broadly, the MIC is the lowest concentration that inhibits growth of the organism. A lower MIC goes with greater potency.

What all share (assay type): functional
One experiment has as its system Bacteroides fragilis. In words: Antibacterial activity against Bacteroides fragilis ATCC 23745 by NCCLS method.
Experiment [1] concerns Staphylococcus epidermidis. In words: Antibacterial activity against Staphylococcus epidermidis ATCC 12228 by NCCLS method.
Experiment [2] concerns Staphylococcus aureus. Put plainly: Antibacterial activity against methicillin-resistant Staphylococcus aureus ATCC 33591 by NCCLS method.
In a further experiment the test system is Enterococcus faecium. In words: Antibacterial activity against vancomycin-resistant Enterococcus faecium ATCC 700221 by NCCLS method.
Another experiment deals with Streptococcus pneumoniae. Put plainly: Antibacterial activity against Streptococcus pneumoniae ATCC 6301 by NCCLS method.
For experiment [3], the system named is Staphylococcus epidermidis. In words: Antibacterial activity against methicillin-resistant Staphylococcus epidermidis ATCC 51625 by NCCLS method.
In experiment [4] the test system is Staphylococcus aureus. In words: Antibacterial activity against multidrug-resistant Staphylococcus aureus BAA-39 by NCCLS method.
The subject of a further experiment is Clostridium perfringens. In words: Antibacterial activity against Clostridium perfringens ATCC 10388 by NCCLS method.
In experiment [5] the test system is Staphylococcus aureus. Put plainly: Antibacterial activity against Staphylococcus aureus ATCC 29213 by NCCLS method.
The subject of the next experiment is Enterococcus faecalis. In words: Antibacterial activity against vancomycin-resistant Enterococcus faecalis ATCC 51575 by NCCLS method.
The test system of another experiment is Bacillus subtilis. In words: Antibacterial activity against Bacillus subtilis ATCC 23857 by NCCLS method.
The next experiment concerns Bacillus cereus. In words: Antibacterial activity against Bacillus cereus ATCC 11778 by NCCLS method.

In the case of `CC1(C)S[C@@H]2[C@H](NC(=O)Cc3ccccc3)C(=O)N2[C@H]1C(=O)O` [PENICILLIN G], the MIC was 4 µg/mL (≈ 12 µM) with Bacteroides fragilis; 32 µg/mL (≈ 95.7 µM) in experiment [1]; greater than 32 µg/mL in the experiment with Staphylococcus aureus [2]; greater than 32 µg/mL against Enterococcus faecium; less than 0.06 µg/mL in the experiment with Streptococcus pneumoniae; 32 µg/mL (≈ 95.7 µM) in experiment [3]. Further, the minimum inhibitory concentration (MIC) against Staphylococcus aureus [4] was greater than 32 µg/mL; with Clostridium perfringens, no more than 0.06 µg/mL; in the experiment with Staphylococcus aureus [5], 1 µg/mL (≈ 2.99 µM); in the experiment on Enterococcus faecalis it was 4 µg/mL (≈ 12 µM); with Bacillus subtilis it was less than 0.06 µg/mL; in the experiment on Bacillus cereus, greater than 4 µg/mL.

Values taken from ChEMBL document CHEMBL1153280, “Synthesis and in vitro activity of dicationic bis-benzimidazoles as a new class of anti-MRSA and anti-VRE agents” (2009).
